From PubChem BioAssay (NCI)
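Method: 48-hour compound exposure of cells in 96-well plates, five concentrations, linear interpolation of endpoints. GI50 = concentration required for 50% inhibition of growth. The concentration for full growth arrest is given as TGI.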

Experiments:
Assay in all cases: NCI-60 cell line screen, 48 h
786-0 renal = system: 786-0 renal
A498 renal = system: A498 renal
A549 NSCLC = system: A549 NSCLC
ACHN renal = system: ACHN renal
BT-549 breast = system: BT-549 breast
CAKI-1 renal = system: CAKI-1 renal
CCRF-CEM leukemia = system: CCRF-CEM leukemia
COLO 205 colon = system: COLO 205 colon
DU-145 prostate = system: DU-145 prostate
EKVX NSCLC = system: EKVX NSCLC
HCC-2998 colon = system: HCC-2998 colon
HCT-116 colon = system: HCT-116 colon
HCT-15 colon = system: HCT-15 colon
HL-60(TB) leukemia = system: HL-60(TB) leukemia
HOP-62 NSCLC = system: HOP-62 NSCLC
HOP-92 NSCLC = system: HOP-92 NSCLC
HS 578T breast = system: HS 578T breast
HT29 colon = system: HT29 colon
IGROV1 ovarian = system: IGROV1 ovarian
K-562 leukemia = system: K-562 leukemia
KM12 colon = system: KM12 colon
LOX IMVI melanoma = system: LOX IMVI melanoma
M14 melanoma = system: M14 melanoma
MALME-3M melanoma = system: MALME-3M melanoma
MCF7 breast = system: MCF7 breast
MDA-MB-231 breast = system: MDA-MB-231 breast
MDA-MB-435 = system: MDA-MB-435
MDA-N = system: MDA-N
MOLT-4 leukemia = system: MOLT-4 leukemia
NCI-H226 lung = system: NCI-H226 lung
NCI-H23 lung = system: NCI-H23 lung
NCI-H460 lung = system: NCI-H460 lung
NCI-H522 lung = system: NCI-H522 lung
NCI/ADR-RES ovarian = system: NCI/ADR-RES ovarian
OVCAR-3 ovarian = system: OVCAR-3 ovarian
OVCAR-4 ovarian = system: OVCAR-4 ovarian
OVCAR-5 ovarian = system: OVCAR-5 ovarian
OVCAR-8 ovarian = system: OVCAR-8 ovarian
PC-3 prostate = system: PC-3 prostate
RPMI-8226 leukemia = system: RPMI-8226 leukemia
RXF 393 renal = system: RXF 393 renal
SF-268 CNS = system: SF-268 CNS
SF-295 CNS = system: SF-295 CNS
SF-539 CNS = system: SF-539 CNS
SK-MEL-2 melanoma = system: SK-MEL-2 melanoma
SK-MEL-28 melanoma = system: SK-MEL-28 melanoma
SK-MEL-5 melanoma = system: SK-MEL-5 melanoma
SK-OV-3 ovarian = system: SK-OV-3 ovarian
SN12C renal = system: SN12C renal
SNB-19 CNS = system: SNB-19 CNS
SNB-75 CNS = system: SNB-75 CNS
SR leukemia = system: SR leukemia
SW-620 colon = system: SW-620 colon
T-47D breast = system: T-47D breast
TK-10 renal = system: TK-10 renal
U251 CNS = system: U251 CNS
UACC-257 melanoma = system: UACC-257 melanoma
UACC-62 melanoma = system: UACC-62 melanoma
UO-31 renal = system: UO-31 renal

SMILES: Nc1ncnc2nn(C3OC(CO)C(O)C3O)nc12 (stereo not drawn)
- TGI (786-0 renal): > 100 µM
- TGI (A498 renal): > 59.6 µM
- TGI (A549 NSCLC): > 64 µM
- TGI (ACHN renal): 49.3 µM
- TGI (BT-549 breast): > 100 µM
- TGI (CAKI-1 renal): > 100 µM
- TGI (CCRF-CEM leukemia): > 67 µM
- TGI (COLO 205 colon): 15.8 µM
- TGI (DU-145 prostate): > 45.4 µM
- TGI (EKVX NSCLC): > 100 µM
- TGI (HCC-2998 colon): 32.8 µM
- TGI (HCT-116 colon): 39.1 µM
- TGI (HCT-15 colon): 45.3 µM
- TGI (HL-60(TB) leukemia): 23.6 µM
- TGI (HOP-62 NSCLC): 46.5 µM
- TGI (HOP-92 NSCLC): > 100 µM
- TGI (HS 578T breast): > 100 µM
- TGI (HT29 colon): > 100 µM
- TGI (IGROV1 ovarian): 39.1 µM
- TGI (K-562 leukemia): > 100 µM
- TGI (KM12 colon): > 100 µM
- TGI (LOX IMVI melanoma): 23 µM
- TGI (M14 melanoma): > 62.8 µM
- TGI (MALME-3M melanoma): > 100 µM
- TGI (MCF7 breast): > 62.3 µM
- TGI (MDA-MB-231 breast): > 25.2 µM
- TGI (MDA-MB-435): > 90 µM
- TGI (MDA-N): > 82.6 µM
- TGI (MOLT-4 leukemia): > 66.2 µM
- TGI (NCI-H226 lung): 40.5 µM
- TGI (NCI-H23 lung): 67.9 µM
- TGI (NCI-H460 lung): 25.3 µM
- TGI (NCI-H522 lung): > 100 µM
- TGI (NCI/ADR-RES ovarian): > 86.8 µM
- TGI (OVCAR-3 ovarian): > 41.1 µM
- TGI (OVCAR-4 ovarian): > 100 µM
- TGI (OVCAR-5 ovarian): > 95.3 µM
- TGI (OVCAR-8 ovarian): > 100 µM
- TGI (PC-3 prostate): > 67.6 µM
- TGI (RPMI-8226 leukemia): 26.5 µM
- TGI (RXF 393 renal): > 23.1 µM
- TGI (SF-268 CNS): > 100 µM
- TGI (SF-295 CNS): > 89.3 µM
- TGI (SF-539 CNS): 58.5 µM
- TGI (SK-MEL-2 melanoma): 17.5 µM
- TGI (SK-MEL-28 melanoma): > 100 µM
- TGI (SK-MEL-5 melanoma): 39.7 µM
- TGI (SK-OV-3 ovarian): 16.6 µM
- TGI (SN12C renal): > 68.5 µM
- TGI (SNB-19 CNS): 99.1 µM
- TGI (SNB-75 CNS): 54.1 µM
- TGI (SR leukemia): 16 µM
- TGI (SW-620 colon): > 100 µM
- TGI (T-47D breast): > 44.5 µM
- TGI (TK-10 renal): > 35.4 µM
- TGI (U251 CNS): > 81.6 µM
- TGI (UACC-257 melanoma): > 87.1 µM
- TGI (UACC-62 melanoma): > 100 µM
- TGI (UO-31 renal): 49 µM

SMILES: CC[C@H]1C=CCC[C@@]2(C[C@@H]3CC[C@@H]4[C@H](C(=O)OCCCCCCCCCCCCCCCC(=O)N(CCCNC(C)=O)C[C@H](CCNC(C)=O)OC(C)=O)[C@]5(CCC[C@@H](C)O5)NC(=[N+]34)N2)O1
- TGI (786-0 renal): 0.426 µM
- TGI (A498 renal): 1.09 µM
- TGI (A549 NSCLC): 1.36 µM
- TGI (ACHN renal): 1.37 µM
- TGI (BT-549 breast): 2.93 µM
- TGI (CAKI-1 renal): 1.86 µM
- TGI (CCRF-CEM leukemia): 0.0469 µM
- TGI (COLO 205 colon): 0.955 µM
- TGI (DU-145 prostate): 1.59 µM
- TGI (EKVX NSCLC): 1.89 µM
- TGI (HCC-2998 colon): 0.221 µM
- TGI (HCT-116 colon): 1.24 µM
- TGI (HCT-15 colon): 2.78 µM
- TGI (HL-60(TB) leukemia): 1.34 µM
- TGI (HOP-62 NSCLC): 1.84 µM
- TGI (HOP-92 NSCLC): 0.32 µM
- TGI (HS 578T breast): 1.72 µM
- TGI (HT29 colon): 0.998 µM
- TGI (IGROV1 ovarian): 1.9 µM
- TGI (K-562 leukemia): 3.81 µM
- TGI (KM12 colon): 1.75 µM
- TGI (LOX IMVI melanoma): 0.0709 µM
- TGI (M14 melanoma): 0.34 µM
- TGI (MALME-3M melanoma): 0.568 µM
- TGI (MCF7 breast): 1.37 µM
- TGI (MDA-MB-231 breast): 1.93 µM
- TGI (MDA-MB-435): 0.545 µM
- TGI (MDA-N): 1.36 µM
- TGI (MOLT-4 leukemia): 1.66 µM
- TGI (NCI-H226 lung): 1.88 µM
- TGI (NCI-H23 lung): 2.93 µM
- TGI (NCI-H460 lung): 1.14 µM
- TGI (NCI-H522 lung): 0.287 µM
- TGI (NCI/ADR-RES ovarian): 8.18 µM
- TGI (OVCAR-3 ovarian): 2.03 µM
- TGI (OVCAR-4 ovarian): 1.84 µM
- TGI (OVCAR-5 ovarian): 1.8 µM
- TGI (OVCAR-8 ovarian): 2.48 µM
- TGI (PC-3 prostate): 1.18 µM
- GI50 (RPMI-8226 leukemia): 0.0406 µM
- TGI (RPMI-8226 leukemia): 0.242 µM
- TGI (RXF 393 renal): 1.02 µM
- TGI (SF-268 CNS): 1.14 µM
- TGI (SF-295 CNS): 1.46 µM
- TGI (SF-539 CNS): 1.59 µM
- TGI (SK-MEL-2 melanoma): 0.338 µM
- TGI (SK-MEL-28 melanoma): 2.52 µM
- TGI (SK-MEL-5 melanoma): 0.647 µM
- TGI (SK-OV-3 ovarian): 2.73 µM
- TGI (SN12C renal): 2.1 µM
- TGI (SNB-19 CNS): 2.22 µM
- TGI (SR leukemia): 0.416 µM
- TGI (SW-620 colon): 2.14 µM
- TGI (T-47D breast): 2.77 µM
- TGI (TK-10 renal): 2.07 µM
- TGI (U251 CNS): 1.11 µM
- TGI (UACC-257 melanoma): 0.291 µM
- TGI (UACC-62 melanoma): 0.246 µM
- TGI (UO-31 renal): 2.46 µM
